Test results as given in ChEMBL document CHEMBL1152778, “Design, synthesis, and biological evaluation of (2R,alphaS)-3,4-dihydro-2-[3-(1,1,2,2-tetrafluoroethoxy)phenyl]-5-[3-(trifluoromethoxy)-phenyl]-alpha-(trifluoromethyl)-1(2H)-quinolineethanol as potent and orally active cholesteryl ester transfer protein inhibitor” (J Med Chem, 2009).
The source made the active and inactive calls. The calls are words filed in the database; no cut-off is given here.

Legend:
[1] = target: T1, Cholesteryl ester transfer protein (Homo sapiens, UniProt P11597); assay: Inhibition of CETP-mediated transfer of [3H]cholesteryl ester from HDL in human plasma after 18 hrs; format: cell-free
T1 sequence (P11597 whole entry): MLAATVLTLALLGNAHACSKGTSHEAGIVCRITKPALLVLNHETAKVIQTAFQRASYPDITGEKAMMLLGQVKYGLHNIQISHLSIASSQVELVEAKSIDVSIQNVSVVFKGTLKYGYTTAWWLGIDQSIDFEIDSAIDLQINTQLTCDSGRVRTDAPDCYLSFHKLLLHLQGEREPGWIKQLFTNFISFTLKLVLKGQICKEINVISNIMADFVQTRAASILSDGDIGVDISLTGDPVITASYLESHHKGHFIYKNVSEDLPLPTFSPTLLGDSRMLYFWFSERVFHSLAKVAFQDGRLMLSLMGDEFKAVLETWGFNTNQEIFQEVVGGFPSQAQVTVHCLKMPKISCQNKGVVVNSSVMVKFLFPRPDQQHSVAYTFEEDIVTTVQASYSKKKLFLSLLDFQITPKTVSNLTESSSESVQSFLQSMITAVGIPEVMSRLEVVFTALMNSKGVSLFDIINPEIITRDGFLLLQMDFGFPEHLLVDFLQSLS

[2] = Inhibition of CETP-mediated transfer of cholesteryl ester to LDL/VLDL in hamster plasma by Roar assay; format: cell-free; conditions: Cricetinae
[3] = Inhibition of CETP-mediated transfer of cholesteryl ester to LDL/VLDL in rabbit plasma by Roar assay; format: cell-free; conditions: Oryctolagus cuniculus
[4] = target: T1, Cholesteryl ester transfer protein; assay: Inhibition of CETP-mediated transfer of cholesteryl ester to LDL/VLDL in human plasma by Roar assay; format: cell-free
[5] = Inhibition of CETP-mediated transfer of cholesteryl ester to LDL/VLDL in monkey plasma by Roar assay; format: cell-free; conditions: Macaca mulatta
[6] = target: T2, Phosphatidylcholine-sterol acyltransferase (Homo sapiens) (UniProt P04180); assay: Inhibition of LCAT activity in human plasma assessed as change in cholesteryl ester/free cholesterol ratio by cell based assay
T2 sequence (whole entry): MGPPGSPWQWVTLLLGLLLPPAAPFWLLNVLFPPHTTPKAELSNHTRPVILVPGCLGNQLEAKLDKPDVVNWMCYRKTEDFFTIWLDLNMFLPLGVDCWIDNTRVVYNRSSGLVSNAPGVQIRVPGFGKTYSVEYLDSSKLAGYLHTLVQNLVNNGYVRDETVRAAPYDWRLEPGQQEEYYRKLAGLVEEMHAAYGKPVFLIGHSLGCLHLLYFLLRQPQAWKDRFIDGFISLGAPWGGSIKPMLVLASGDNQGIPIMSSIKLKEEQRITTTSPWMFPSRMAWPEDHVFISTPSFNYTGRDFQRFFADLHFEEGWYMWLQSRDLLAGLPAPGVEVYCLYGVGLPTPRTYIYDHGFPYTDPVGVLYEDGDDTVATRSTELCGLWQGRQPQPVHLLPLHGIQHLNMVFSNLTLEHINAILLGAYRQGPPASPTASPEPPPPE

[7] = target: T3, Lipoprotein lipase (Homo sapiens) (UniProt P06858); assay: Inhibition of lipoprotein lipase activity assessed as release of free fatty acid from hydrolysis of VLDL by cell based assay
T3 sequence (whole entry): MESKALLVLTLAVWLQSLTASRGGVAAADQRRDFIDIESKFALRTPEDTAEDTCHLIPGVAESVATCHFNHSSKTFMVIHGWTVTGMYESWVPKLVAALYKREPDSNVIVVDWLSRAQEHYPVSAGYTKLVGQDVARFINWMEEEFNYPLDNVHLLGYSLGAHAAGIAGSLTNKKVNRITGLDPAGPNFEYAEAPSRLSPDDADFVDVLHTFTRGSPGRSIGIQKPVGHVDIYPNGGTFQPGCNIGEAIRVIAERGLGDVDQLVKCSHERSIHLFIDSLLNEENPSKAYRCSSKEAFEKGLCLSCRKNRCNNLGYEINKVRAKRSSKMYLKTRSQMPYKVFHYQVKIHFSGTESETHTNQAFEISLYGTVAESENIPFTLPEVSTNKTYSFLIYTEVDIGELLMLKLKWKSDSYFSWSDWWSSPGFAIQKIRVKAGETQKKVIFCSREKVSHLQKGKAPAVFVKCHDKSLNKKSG

[8] = Metabolic stability in human liver microsomes assessed as half life; format: ADME, Microsome
[9] = Oral bioavailability in rat at 10 mg/kg; format: ADME, organism-based; conditions: in vivo
[10] = Tmax in rat at 2 to 3 mg/kg, iv and 10 mg/kg, po; format: ADME, organism-based; conditions: in vivo
[11] = AUC in rat at 2 to 3 mg/kg, iv and 10 mg/kg, po; format: ADME, organism-based; conditions: plasma
[12] = Clearance in rat at 2 to 3 mg/kg, iv and 10 mg/kg, po; format: ADME, organism-based; conditions: in vivo
[13] = Volume of distribution at steady state in rat at 2 to 3 mg/kg, iv and 10 mg/kg, po; format: ADME, organism-based; conditions: in vivo, read-out: Vdss
[14] = Oral bioavailability in dog at 10 mg/kg; format: ADME, organism-based, Canis lupus familiaris; conditions: in vivo
[15] = Oral bioavailability in monkey at 10 mg/kg; format: ADME, organism-based, Macaca mulatta; conditions: rhesus monkey, in vivo
Hamster [16] = assay: Increase in HDLC level in po dosed high-fat fed hamster model; format: functional, organism-based; conditions: Cricetinae
Hamster [17] = assay: Increase in HDLC to LDLC ratio in high-fat fed hamster model at 3 to 30 mg/kg, po for 5 days measured after 2 hrs of last dose; format: functional, Cricetinae; conditions: dose mg/kg 3-30
Mus musculus [18] = assay: Increase in HDLC level in po dosed normal chow diet-fed human CETP transgenic mouse model; format: functional, organism-based
Mus musculus [19] = assay: Increase in HDLC level in normal chow diet-fed human CETP transgenic mouse model at 3 mg/kg, po for 5 days measured after 2 hrs of last dose; format: functional, organism-based; parameters: dose 3 mg/kg
Mus musculus [20] = assay: Increase in HDLC level in normal chow diet-fed human CETP transgenic mouse model at 30 mg/kg, po for 5 days measured after 2 hrs of last dose; format: functional
Cynomolgus monkey [21] = assay: Increase in HDLC level in normal chow diet-fed cynomolgus monkey at 3 mg/kg, po for 5 days measured after 10 hrs of last dose; format: functional, Macaca fascicularis
Cynomolgus monkey [22] = assay: Increase in HDLC level in normal chow diet-fed cynomolgus monkey at 10 mg/kg, po for 5 days measured after 10 hrs of last dose; format: functional, Macaca fascicularis
Cynomolgus monkey [23] = assay: Increase in HDLC level in normal chow diet-fed cynomolgus monkey at 30 mg/kg, po for 5 days measured after 10 hrs of last dose; format: functional, Macaca fascicularis
Cynomolgus monkey [24] = assay: Ex vivo inhibition of CETP in po dosed normal chow diet-fed cynomolgus monkey by Roar assay; format: functional, organism-based; conditions: Macaca fascicularis
Cynomolgus monkey [25] = assay: Ex vivo inhibition of CETP in normal chow diet-fed cynomolgus monkey at 3 mg/kg, po for 5 days by Roar assay; format: functional; conditions: Macaca fascicularis, 120 h
Cynomolgus monkey [26] = assay: Ex vivo inhibition of CETP in normal chow diet-fed cynomolgus monkey at 10 mg/kg, po for 5 days by Roar assay; format: functional; conditions: Macaca fascicularis, 120 h
[27] = Plasma concentration in normal chow diet-fed cynomolgus monkey at 3 mg/kg, po for 5 days; format: ADME, organism-based, Macaca fascicularis; parameters: dose 3 mg/kg, route oral
[28] = Plasma concentration in normal chow diet-fed cynomolgus monkey at 10 mg/kg, po for 5 days; format: ADME, organism-based, Macaca fascicularis; parameters: dose 10 mg/kg, route oral

With `O[C@@H](CN1c2cccc(-c3cccc(OC(F)(F)F)c3)c2CC[C@@H]1c1cccc(OC(F)(F)C(F)F)c1)C(F)(F)F` the IC50 [1] was 200 nM, the IC50 [2] was 100 nM and the IC50 [3] was 3500 nM. The IC50 [4] was 1200 nM, the IC50 [5] was 1400 nM and the Activity [6] was “inactive”. The Activity [7] was “inactive”, the half-life [8] was > 2.13 h and the bioavailability [9] was 31%. For the same compound, the Tmax [10] was 6 h, the AUC [11] was 31300 ng·h/mL and the clearance [12] was 1.8 mL/min/kg. It also gave a Vd [13] of 0.36 L/kg, a bioavailability [14] of 5% and a bioavailability [15] of 27%. For the same compound, the Activity (Hamster [16]) was “Dose-dependent effect”, the Activity (Hamster [17]) was 4.6 and the Activity (Mus musculus [18]) was “Dose-dependent effect”. For the same compound, the Activity (Mus musculus [19]) was “Active”, the Activity (Mus musculus [20]) was 25% and the Activity (Cynomolgus monkey [21]) was 4%. For the same compound, the Activity (Cynomolgus monkey [22]) was 16%, the Activity (Cynomolgus monkey [23]) was 32% and the Activity (Cynomolgus monkey [24]) was “Dose-dependent effect”. It also gave an inhibition in vivo at 3 mg/kg (Cynomolgus monkey [25]) of 11%, an inhibition in vivo at 10 mg/kg (Cynomolgus monkey [26]) of 51% and a concentration at 120 h [27] of 400 nM. The concentration at 120 h [28] was 2700 nM.
